Experiments:
[1] = target: purified recombinant human GAC (GLS1) (Homo sapiens (Human), UniProt O94925); assay: GLS1 Enzymatic Activity Assay (dual-coupled enzymatic assay, resorufin/Amplex UltraRed readout); assay type: biochemical;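 also: glutamate from GAC coupled via glutamate oxidase and peroxidase to resorufin, read as fluorescence (ex 530, em 590 nm) kinetically or at 20 min, four-parameter logistic IC50 fit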
A549 cells = assay: Proliferation Assay (A549 viability, Cell Titer Fluor, 72 hours); assay type: cell-based; details: Homo sapiens, A549, 72 h
In short: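 A549 cells seeded at 1000 cells/well, rested 24 h, then exposed to compound in 0.5% DMSO for 72 h at 37 °C. Viability read by Cell Titer Fluor fluorescence; IC50 from four-parameter logistic fit.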

purified recombinant human GAC (GLS1), sequence (O94925 other isoform, or with tags, fused parts or gaps): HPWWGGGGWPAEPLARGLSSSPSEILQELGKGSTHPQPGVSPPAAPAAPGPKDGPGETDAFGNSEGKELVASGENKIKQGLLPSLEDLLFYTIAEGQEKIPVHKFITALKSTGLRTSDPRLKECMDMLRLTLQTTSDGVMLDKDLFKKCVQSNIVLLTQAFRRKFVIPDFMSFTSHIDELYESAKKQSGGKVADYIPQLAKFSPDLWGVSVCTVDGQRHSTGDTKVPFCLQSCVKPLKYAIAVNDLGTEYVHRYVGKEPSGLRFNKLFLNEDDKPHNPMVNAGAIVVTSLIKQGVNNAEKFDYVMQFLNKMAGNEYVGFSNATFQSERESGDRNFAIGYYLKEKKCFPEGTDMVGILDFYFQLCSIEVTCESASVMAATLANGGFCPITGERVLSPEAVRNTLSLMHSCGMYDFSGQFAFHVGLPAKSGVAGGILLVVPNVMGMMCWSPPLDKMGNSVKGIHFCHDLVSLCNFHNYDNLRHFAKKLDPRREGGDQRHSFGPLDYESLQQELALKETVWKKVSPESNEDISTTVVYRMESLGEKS

Row | Compound | IC50 [1] [µM] | EC50 (A549 cells) [µM]
1 | O=C(NCc1cccc(C(F)(F)F)c1)c1cn(CCCCn2cc(C(=O)NCc3cc(C(F)(F)F)ccn3)nn2)nn1 [Example 97, 1-{4-[4-({[3-(trifluoromethyl)phenyl]methyl}carbamoyl)-1H-1,2,3-triazol-1-yl]butyl}-N-{[4-(trifluoromethyl)pyridin-2-yl]methyl}-1H-1,2,3-triazole-4-carboxamide] | < 0.1 | < 0.1
2 | O=C(NCc1cc(C(F)(F)F)ccn1)c1cn(CCCCn2cc(C(=O)N[C@@H](CO)c3ccccc3)nn2)nn1 [Example 100, 1-[4-(4-{[(1R)-2-hydroxy-1-phenylethyl]carbamoyl}-1H-1,2,3-triazol-1-yl)butyl]-N-{[4-(trifluoromethyl)pyridin-2-yl]methyl}-1H-1,2,3-triazole-4-carboxamide] | 0.5 to 5 | > 5
3 | O=C(NCc1cc(C(F)(F)F)ccn1)c1cn(CCCCn2cc(C(=O)NC3CCCC3)nn2)nn1 [Example 104, 1-{4-[4-(cyclopentylcarbamoyl)-1H-1,2,3-triazol-1-yl]butyl}-N-{[4-(trifluoromethyl)pyridin-2-yl]methyl}-1H-1,2,3-triazole-4-carboxamide] | 0.5 to 5 | 0.5 to 5
4 | O=C(NCc1cccc(C2CC2)c1)c1cn(CCCCn2cc(C(=O)NCc3cc(C(F)(F)F)ccn3)nn2)nn1 [Example 105, 1-[4-(4-{[(3-cyclopropylphenyl)methyl]carbamoyl}-1H-1,2,3-triazol-1-yl)butyl]-N-{[4-(trifluoromethyl)pyridin-2-yl]methyl}-1H-1,2,3-triazole-4-carboxamide] | < 0.1 | < 0.1
5 | O=C(NCc1cccc(OC(F)(F)F)c1)c1cn(CCCCn2cc(C(=O)NCc3cc(C4CC4)ccn3)nn2)nn1 [Example 106, N-[(4-cyclopropylpyridin-2-yl)methyl]-1-{4-[4-({[3-(trifluoromethoxy)phenyl]methyl}carbamoyl)-1H-1,2,3-triazol-1-yl]butyl}-1H-1,2,3-triazole-4-carboxamide] | < 0.1 | < 0.1
6 | O=C(NCc1cccc(Cl)c1)c1cn(CCCCn2cc(C(=O)NCc3cc(C(F)(F)F)ccn3)nn2)nn1 [Example 111, 1-[4-(4-{[(3-chlorophenyl)methyl]carbamoyl}-1H-1,2,3-triazol-1-yl)butyl]-N-{[4-(trifluoromethyl)pyridin-2-yl]methyl}-1H-1,2,3-triazole-4-carboxamide] | < 0.1 | < 0.1
7 | O=C(NCc1cccc(F)c1)c1cn(CCCCn2cc(C(=O)NCc3cc(C(F)(F)F)ccn3)nn2)nn1 [Example 112, 1-[4-(4-{[(3-fluorophenyl)methyl]carbamoyl}-1H-1,2,3-triazol-1-yl)butyl]-N-{[4-(trifluoromethyl)pyridin-2-yl]methyl}-1H-1,2,3-triazole-4-carboxamide] | 0.1 to 0.5 | 0.1 to 0.5
8 | O=C(NCc1cccc(CO)c1)c1cn(CCCCn2cc(C(=O)NCc3cc(C(F)(F)F)ccn3)nn2)nn1 [Example 113, 1-{4-[4-({[3-(hydroxymethyl)phenyl]methyl}carbamoyl)-1H-1,2,3-triazol-1-yl]butyl}-N-{[4-(trifluoromethyl)pyridin-2-yl]methyl}-1H-1,2,3-triazole-4-carboxamide] | < 0.1 | 0.5 to 5

More lines, now with the values ahead:

Row | IC50 [1] [µM] | EC50 (A549 cells) [µM] | Compound
9 | 0.5 to 5 | 0.5 to 5 | C[C@@H](NC(=O)c1cn(CCCCn2cc(C(=O)NCc3cc(C(F)(F)F)ccn3)nn2)nn1)c1ccccc1 [Example 98, 1-[4-(4-{[(1R)-1-phenylethyl]carbamoyl}-1H-1,2,3-triazol-1-yl)butyl]-N-{[4-(trifluoromethyl)pyridin-2-yl]methyl}-1H-1,2,3-triazole-4-carboxamide]
10 | 0.5 to 5 | 0.5 to 5 | C[C@H](NC(=O)c1cn(CCCCn2cc(C(=O)NCc3cc(C(F)(F)F)ccn3)nn2)nn1)c1ccccc1 [Example 99, 1-[4-(4-{[(1S)-1-phenylethyl]carbamoyl}-1H-1,2,3-triazol-1-yl)butyl]-N-{[4-(trifluoromethyl)pyridin-2-yl]methyl}-1H-1,2,3-triazole-4-carboxamide]
11 | 0.5 to 5 | 0.5 to 5 | O=C(NCc1cc(C(F)(F)F)ccn1)c1cn(CCCCn2cc(C(=O)N[C@H](CO)c3ccccc3)nn2)nn1 [Example 101, 1-[4-(4-{[(1S)-2-hydroxy-1-phenylethyl]carbamoyl}-1H-1,2,3-triazol-1-yl)butyl]-N-{[4-(trifluoromethyl)pyridin-2-yl]methyl}-1H-1,2,3-triazole-4-carboxamide]
12 | 0.5 to 5 | 0.5 to 5 | O=C(NCc1cc(C(F)(F)F)ccn1)c1cn(CCCCn2cc(C(=O)NC[C@H]3CC4CCC3O4)nn2)nn1 (stereo partly drawn) [Example 102, 1-[4-(4-{[(2R)-7-oxabicyclo[2.2.1]heptan-2-ylmethyl]carbamoyl}-1H-1,2,3-triazol-1-yl)butyl]-N-{[4-(trifluoromethyl)pyridin-2-yl]methyl}-1H-1,2,3-triazole-4-carboxamide]
13 | 0.1 to 0.5 | 0.5 to 5 | O=C(NCc1cc(C(F)(F)F)ccn1)c1cn(CCCCn2cc(C(=O)NC[C@@H]3CC4CCC3O4)nn2)nn1 (stereo partly drawn) [Example 103, 1-[4-(4-{[(2S)-7-oxabicyclo[2.2.1]heptan-2-ylmethyl]carbamoyl}-1H-1,2,3-triazol-1-yl)butyl]-N-{[4-(trifluoromethyl)pyridin-2-yl]methyl}-1H-1,2,3-triazole-4-carboxamide]
14 | < 0.1 | < 0.1 | O=C(NCc1cc(C(F)(F)F)ccn1)c1cn(CCCCn2cc(C(=O)NCc3cc(F)ccc3Cl)nn2)nn1 [Example 107, 1-[4-(4-{[(2-chloro-5-fluorophenyl)methyl]carbamoyl}-1H-1,2,3-triazol-1-yl)butyl]-N-{[4-(trifluoromethyl)pyridin-2-yl]methyl}-1H-1,2,3-triazole-4-carboxamide]
15 | < 0.1 | 0.1 to 0.5 | COc1cccc(CNC(=O)c2cn(CCCCn3cc(C(=O)NCc4cc(C(F)(F)F)ccn4)nn3)nn2)c1 [Example 108, 1-[4-(4-{[(3-methoxyphenyl)methyl]carbamoyl}-1H-1,2,3-triazol-1-yl)butyl]-N-{[4-(trifluoromethyl)pyridin-2-yl]methyl}-1H-1,2,3-triazole-4-carboxamide]
16 | < 0.1 | 0.1 to 0.5 | CC(NC(=O)c1cn(CCCCn2cc(C(=O)NCc3cc(C(F)(F)F)ccn3)nn2)nn1)c1cccc(OC(F)(F)F)c1 (stereo not drawn) [Example 109, 1-{4-[4-({1-[3-(trifluoromethoxy)phenyl]ethyl}carbamoyl)-1H-1,2,3-triazol-1-yl]butyl}-N-{[4-(trifluoromethyl)pyridin-2-yl]methyl}-1H-1,2,3-triazole-4-carboxamide]
17 | < 0.1 | < 0.1 | CC(C)(C)OC(=O)NCc1cccc(CNC(=O)c2cn(CCCCn3cc(C(=O)NCc4cc(C(F)(F)F)ccn4)nn3)nn2)c1 [Example 110, tert-butyl N-[(3-{[(1-{4-[4-({[4-(trifluoromethyl)pyridin-2-yl]methyl}carbamoyl)-1H-1,2,3-triazol-1-yl]butyl}-1H-1,2,3-triazol-4-yl)formamido]methyl}phenyl)methyl]carbamate]
18 | 0.5 to 5 | 0.5 to 5 | O=C(NCc1cc(C(F)(F)F)ccn1)c1cn(CCCCn2cc(C(=O)NCC3CCCCO3)nn2)nn1 (stereo not drawn) [Example 114]

Reference: patent publication US10344025B2, “GLS1 inhibitors for treating disease” (Board of Regents, The University of Texas System, priority 2014, dated 2019)
